Test results: patent US10039758B2 (priority 2014, dated 2018)
pEC50: −log10 of the molar value. Entries after “also recorded” stand apart in the source; their conditions may differ. Read-outs that look alike come from different tables or passages of the source.

Tests used:
[1] = in vitro; settings: human
[2] = system: MEK2; type: cell-based, mouse
[3] = target: LF (Bacillus anthracis, UniProt P15917); type: biochemical
[4] = system: Respiratory syncytial virus (RSV): Strain A-2; test: microbe, parasite or virus in culture; type: cell-based; settings: human respiratory syncytial virus, HEp-2
[5] = target: purified human cathepsin B (Homo sapiens, UniProt P07858); type: biochemical; settings: 4, 8, 16, 33, 66 uM, without drug pre-incubation (FIG. 16)
[6] = system: Chikungunya virus (CHIV); test: microbe, parasite or virus in culture; settings: HFF-1
[7] = in vitro; settings: human; remark: listed apart in the source
[8] = system: acidic organelles; type: cell-based, mouse; settings: RAW264.7, AQ 1 hour, 500 ng/ml PA 1 hour
[9] = target: T1, cathepsin B (Mus musculus, UniProt P10605); type: biochemical; settings: RAW264.7 lysate, 4-66 uM (FIG. 18)
T1 sequence (P10605 80-333): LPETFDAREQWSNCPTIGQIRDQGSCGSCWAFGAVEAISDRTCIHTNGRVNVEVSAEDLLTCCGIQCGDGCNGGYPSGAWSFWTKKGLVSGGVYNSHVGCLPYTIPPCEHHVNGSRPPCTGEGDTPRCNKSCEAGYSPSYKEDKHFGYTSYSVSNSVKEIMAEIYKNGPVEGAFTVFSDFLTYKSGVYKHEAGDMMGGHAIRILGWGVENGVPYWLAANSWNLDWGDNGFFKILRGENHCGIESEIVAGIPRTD

[10] = system: Ebola virus; settings: cited from earlier work
[11] = target: cathepsin B (Homo sapiens, UniProt P07858); type: binding
[12] = system: Human Cytomegalovirus (CMV Strain AD169); settings: Human Cytomegalovirus assay
[13] = target: T1, cathepsin B; type: cell-based; settings: RAW264.7, 4-66 uM, 1 hour before lysis (FIG. 17)
[14] = system: anthrax toxin (12 μg LF + 40 μg PA); set-up: species or system Sprague-Dawley rats; settings: rat, in vivo
[15] = system: Ebola virus (Kikwit); test: microbe, parasite or virus in culture; type: cell-based; settings: Zaire ebolavirus, HeLa, 48 h
[16] = system: Clostridium difficile Toxin B, RAW264.7 cells
[17] = system: PA+FP59, RAW264.7 cells; type: cell-based, mouse
[18] = system: anthrax lethal toxin (LF-PA), RAW264.7 cells; type: cell-based, mouse
[19] = system: diphtheria toxin, C32 human melanoma cell line; type: cell-based
[20] = system: caspase-1; type: cell-based, mouse
[21] = in vitro
[22] = system: PA; type: cell-based, mouse
[23] = system: host lysosomal cathepsin B; settings: cited from earlier work
[24] = system: endosomal acidification; settings: cited from earlier work

LF, sequence (P15917 34-809 limits assumed): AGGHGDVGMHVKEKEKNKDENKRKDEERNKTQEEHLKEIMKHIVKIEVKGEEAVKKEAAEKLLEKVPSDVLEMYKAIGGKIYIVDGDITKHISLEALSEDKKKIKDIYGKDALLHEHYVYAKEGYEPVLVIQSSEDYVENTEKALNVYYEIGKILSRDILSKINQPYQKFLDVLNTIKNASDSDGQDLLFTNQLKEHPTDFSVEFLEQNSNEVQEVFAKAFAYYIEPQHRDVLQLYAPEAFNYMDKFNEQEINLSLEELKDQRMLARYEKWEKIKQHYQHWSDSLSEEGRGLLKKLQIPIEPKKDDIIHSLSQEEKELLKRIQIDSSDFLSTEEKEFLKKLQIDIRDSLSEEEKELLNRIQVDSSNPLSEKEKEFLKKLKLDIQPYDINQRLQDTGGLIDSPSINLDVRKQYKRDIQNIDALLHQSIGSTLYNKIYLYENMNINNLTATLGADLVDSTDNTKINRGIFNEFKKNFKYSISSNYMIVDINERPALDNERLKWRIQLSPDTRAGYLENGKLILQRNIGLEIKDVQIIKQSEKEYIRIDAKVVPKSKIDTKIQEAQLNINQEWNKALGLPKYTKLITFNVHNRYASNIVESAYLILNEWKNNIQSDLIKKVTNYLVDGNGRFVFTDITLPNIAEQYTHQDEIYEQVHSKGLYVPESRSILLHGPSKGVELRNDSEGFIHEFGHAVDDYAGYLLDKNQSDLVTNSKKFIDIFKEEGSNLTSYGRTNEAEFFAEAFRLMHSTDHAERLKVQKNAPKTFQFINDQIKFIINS

## CCN(CC)Cc1cc(Nc2ccnc3cc(Cl)ccc23)ccc1O [AQ, Amodiaquine]
[1]
  CC50: 50 µM
[2]
  cleavage of MEK2 by LF in cells (immunoblot): completely prevented this effect
[3]
  proteolytic activity of LF on MAPKK peptide (emission at 523 nm): does not block the proteolytic activity of LF
[4]
  pEC50: 4.49
[5]
  inhibition of cathepsin B activity, purified human cathepsin B: directly inhibit cathepsin B activity in a dose dependent manner
[6]
  pEC50: 4.74
[7]
  CC50: > 50 µM
[8]
  cell-associated Lysosensor fluorescence (endosomal acidification): markedly decreased cell-associated Lysosensor fluorescence
[9]
  cathepsin B activity in protein lysate from cells not exposed to drugs prior to lysis: inhibited cathepsin B activity
[10]
  inhibition of Ebola virus pathogenicity in cells: inhibit Ebola virus pathogenicity in cells
[11]; 2 mM AQ, 20 μM cathepsin B
  binding to cathepsin B (STD difference spectrum): binding to the enzyme
[11]; relative to the H4 atom (100%)
  STD effect, atom H4: 100%
  STD effect, atom H5: 97%
[12]
  CC50: > 60 µM
[13]
  cathepsin B enzymatic activity in cells pre-treated with drug: lost cathepsin B enzymatic activity in a dose dependent manner
[14]
  clinical signs of toxin challenge: all of the animals in that group displayed classical signs of having undergone a toxin challenge
  survival and toxin-associated symptoms: survived; also recorded: protected all of the rats; also recorded: all survived without displaying toxin-associated symptoms
[15]
  pEC50: 5.42
[16]
  survival of RAW264.7 macrophages exposed to Clostridium difficile Toxin B: increase survival
[17]
  sensitivity of cells to PA+FP59: less sensitive to treatment with PA+FP59
[18]
  protection of host cells against anthrax toxin killing (cell survival): increased survival; also recorded: completely protect
  sensitivity of host cells to PA83+LF versus PA63+LF: equally reduces sensitivity of host cells to both PA83+LF and PA63+LF treatments
[19]
  multiplex hit in JHCCL screen: inhibition of anthrax and diphtheria toxin cell killing: inhibited anthrax and diphtheria toxins
  survival of C32 cells exposed to diphtheria toxin: increase survival
[20]
  active caspase-1 (FLICA fluorescence) after LF-PA: not detected
[21]
  CC50: 31 µM
[22]
  binding of PA83 to cells and proteolytic processing of PA to PA63: did not block binding of PA83 to cells or block proteolytic processing of PA to generate PA63

## COc1cc(NC(C)CCCN)c2ncccc2c1 (stereo not drawn) [Primaquine]
[18]
  protection of host cells against anthrax toxin killing (cell survival): none of the other quinoline-containing antimalarial compounds, Cinchonine, Primaquine, and Quinidine, from JHCCL were active

## C=C[C@H]1C[N@@]2CC[C@H]1C[C@@H]2[C@@H](O)c1ccnc2ccc(OC)cc12 [Quinidine]
[18]
  protection of host cells against anthrax toxin killing (cell survival): none of the other quinoline-containing antimalarial compounds, Cinchonine, Primaquine, and Quinidine, from JHCCL were active

## CCNCc1cc(Nc2ccnc3cc(Cl)ccc23)ccc1O [DEAQ, N-Desethyl Amodiaquine]
[5]
  inhibition of cathepsin B activity, purified human cathepsin B: directly inhibit cathepsin B activity in a dose dependent manner
[9]
  cathepsin B activity in protein lysate from cells not exposed to drugs prior to lysis: inhibited cathepsin B activity
[13]
  cathepsin B enzymatic activity in cells pre-treated with drug: lost cathepsin B enzymatic activity in a dose dependent manner
[15]
  pEC50: 5.44
[18]
  protection of host cells against anthrax toxin killing (cell survival): increased survival

## CCNCCCC(C)Nc1ccnc2cc(Cl)ccc12 (stereo not drawn) [DECQ, Desethyl-Chloroquine]
[5]
  inhibition of cathepsin B activity, purified human cathepsin B: weaker inhibitors of cathepsin B activity
[9]
  cathepsin B activity in protein lysate from cells not exposed to drugs prior to lysis: weaker inhibitors of cathepsin B activity
[13]
  cathepsin B enzymatic activity in cells pre-treated with drug: weaker inhibitors of cathepsin B activity

## CA-074
[23]
  effect of cathepsin B inhibition on cellular sensitivity to LF-PA: reduction of cellular sensitivity to LF-PA

## CCN(CC)CCCC(C)Nc1ccnc2cc(Cl)ccc12 (stereo not drawn) [CQ, Chloroquine]
[24]
  endosomal acidification: prevent endosomal acidification
[5]
  inhibition of cathepsin B activity, purified human cathepsin B: weaker inhibitors of cathepsin B activity
[9]
  cathepsin B activity in protein lysate from cells not exposed to drugs prior to lysis: weaker inhibitors of cathepsin B activity
[10]
  inhibition of Ebola virus pathogenicity in cells: inhibit Ebola virus pathogenicity in cells
[13]
  cathepsin B enzymatic activity in cells pre-treated with drug: weaker inhibitors of cathepsin B activity
[19]
  multiplex hit in JHCCL screen: inhibition of anthrax and diphtheria toxin cell killing: inhibited anthrax and diphtheria toxins

## C=C[C@H]1C[N@@]2CC[C@H]1C[C@@H]2[C@@H](O)c1ccnc2ccccc12 [Cinchonine]
[18]
  protection of host cells against anthrax toxin killing (cell survival): none of the other quinoline-containing antimalarial compounds, Cinchonine, Primaquine, and Quinidine, from JHCCL were active
